Tests used:
[1] = molecular target: T1, AGTR1 (Homo sapiens, UniProt P30556); experiment: DiscoveRx IP1 accumulation assay (HTRF), agonist mode, Pathunter CHO-K1 AGTR1 β-arrestin cell line; type: cell-based; conditions: for EC50: read-out: IP-1 EC50
T1 construct: host or cells: Pathunter CHO-K1 AGTR1 β-arrestin cell line (CHO-K1)
T1 sequence (P30556 1-359): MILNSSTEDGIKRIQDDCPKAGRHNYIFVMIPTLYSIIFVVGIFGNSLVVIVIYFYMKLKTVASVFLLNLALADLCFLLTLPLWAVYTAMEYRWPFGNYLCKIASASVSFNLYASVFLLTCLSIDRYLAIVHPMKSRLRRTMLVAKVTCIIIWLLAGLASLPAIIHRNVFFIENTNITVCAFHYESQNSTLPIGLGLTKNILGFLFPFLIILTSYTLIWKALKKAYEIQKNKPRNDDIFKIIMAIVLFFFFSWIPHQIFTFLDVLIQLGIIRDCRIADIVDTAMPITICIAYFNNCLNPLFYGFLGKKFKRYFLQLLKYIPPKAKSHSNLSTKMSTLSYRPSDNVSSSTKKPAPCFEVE
Method in brief: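 Agonist mode in CHO-K1 AGTR1 β-arrestin cells plated 14-16 h before; compounds at varying concentrations for 90 min at 37° C, IP1 accumulation read by HTRF (D2-conjugate and anti-IP1 cryptate, 20 min room temperature). EC50 from 4-parameter logistic fit; activity given as percentage of maximal AII effect.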

[2] = molecular target: T2, hAT1R (Homo sapiens, UniProt P30556); experiment: BRET β-arrestin2 biosensor assay, higher receptor expression (hAT1R 5 ng/well), HEK293 cells; type: cell-based; conditions: for EC50: High AT1R Expression
T2 sequence (P30556 1-359): T1 sequence (P30556 1-359)

[3] = molecular target: T2, hAT1R; experiment: cell-based
[4] = molecular target: T1, AGTR1; experiment: DiscoveRx β-arrestin2 recruitment assay (enzyme complementation, Pathunter CHO-K1 AGTR1 β-arrestin cell line); type: cell-based; conditions: DiscoveRx β-arrestin2 recruitment; for DiscoveRx β-arrestin2 Ymax (%): maximal response
Method in brief: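 CHO-K1 cells expressing AGTR1 with β-arrestin2 enzyme-complementation reporter, plated 14-16 h ahead in 1% serum medium, then exposed to compounds for 90 min at 37° C. Chemiluminescence read after 1 h detection. EC50 (agonist) or IC50 (antagonist) from 4-parameter logistic fit; activity as percentage of All maximal effect.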

[5] = molecular target: T2, hAT1R; experiment: cell-based; conditions: agonist mode; for EC50: read-out: BRET P63 EC50
[6] = section of the 42nd table ending at r951, example numbering restarts after the DiscoveRx section, read-out: β-arrestin2 EC50
[7] = Low AT1R Expression, read-out: BRET β-Arrestin2 Low AT1R Expression EC50

Structure (SMILES)	IP-1 Ymax (%) [1]	EC50 [1]	BRET β-Arrestin2 High AT1R Expression Ymax (%) [2]	EC50 [2]	EC50 [3, 6]	EC50 [4]	DiscoveRx β-arrestin2 Ymax (%) [4]	BRET P63 Ymax [5]	EC50 [5]	BRET β-Arrestin2 Low AT1R Expression Ymax (%) ([3]; Low AT1R Expression)	EC50 [3, 7]
CCc1nc2c(C)cc(C)nc2n1Cc1ccc(-c2cc(OC3CCCCC3)ccc2-c2nnn[nH]2)cc1 [Example 209, 3-((5′-(Cyclohexyloxy)-2′-(1H-tetrazol-5-yl)-[1,1′-biphenyl]-4-yl)methyl)-2-ethyl-5,7-dimethyl-3H-imidazo[4,5-b]pyridine]	25.5%	110 nM	90.6%	7.2 nM	50 nM	45.9 nM	49.6%	32.6%	37.6 nM		
CCc1nc2c(C)cc(C)nc2n1Cc1ccc(-c2cc(-c3cn(CC4CC4)nn3)ccc2-c2nnn[nH]2)cc1 [Example 237]	13.7%	79.7 nM	84.4%	16.3 nM	112 nM	55.3 nM	62.3%	21.1%	60.5 nM		
CCc1nc2c(C)cc(C)nc2n1Cc1ccc(-c2cc(-c3ccccc3)ccc2-c2noc(=S)[nH]2)cc1 [Example 72, 3-(4″-((2-ethyl-5,7-dimethyl-3H-imidazo[4,5-b]pyridin-3-yl)methyl)-[1,1′:3′,1″-terphenyl]-4′-yl)-1,2,4-oxadiazole-5(4H)-thione]	8.5%	92 nM	85.8%	33.2 nM		22.6 nM	63.6%	11.8%	43 nM	44.4%	58.2 nM
CCc1nc2c(C)cc(C)nc2n1Cc1ccc(-c2cc(-c3cc(F)cc(F)c3)ccc2-c2nn[nH]n2)cc1 [Example 53]	5.8%	7.9 nM	90.6%	5.4 nM		2.6 nM	39.4%		> 100000 nM	61.8%	14 nM
CCc1nc2c(C)cc(C)nc2n1Cc1ccc(-c2cc(Oc3cncc(C)c3)ccc2-c2nn[nH]n2)cc1 [Example 260]	18.5%	175 nM	87.9%	7.8 nM	49.9 nM	51.7 nM	36.4%		> 100000 nM		
CCc1nc2c(C)cc(C)nc2n1Cc1ccc(-c2cc(Oc3cc(F)ccn3)ccc2-c2nn[nH]n2)cc1 [Example 254]	30.0%	177 nM	75.6%	20 nM	59.1 nM	35.8 nM	26.9%	7.1%	39.9 nM		
CCc1nc2c(C)cc(C)nc2n1Cc1ccc(-c2cc(-c3cncc(C)c3)ccc2-c2nn[nH]n2)cc1 [Example 60]	5.3%	83.1 nM	85.8%	19.6 nM		53.7 nM	33.5%		> 10000 nM	39.4%	93.3 nM
CCc1nc2c(C)cc(C)nc2n1Cc1ccc(-c2cc(-c3ccccc3O)ccc2-c2nn[nH]n2)cc1 [Example 10]	14.4%	5 nM	86.9%	1.4 nM		1.4 nM	60.3%	26.1%	2.8 nM	86.8%	2.4 nM
CCc1nc2c(C)cc(C)nc2n1Cc1ccc(-c2cc(-n3cc(C4CC4)nn3)ccc2-c2nnn[nH]2)cc1 [Example 225, 3-((5′-(4-Cyclopropyl-1H-1,2,3-triazol-1-yl)-2′-(5H-tetrazol-5-yl)-[1,1′-biphenyl]-4-yl)methyl)-2-ethyl-5,7-dimethyl-3H-imidazo[4,5-b]pyridine]	7.0%	25.2 nM	82.1%	10.9 nM	187 nM	29 nM	35.4%	7.1%	29.5 nM		
CCc1nc2c(C)cc(C)nc2n1Cc1ccc(-c2cc(Oc3ccccn3)ccc2-c2nnn[nH]2)cc1 [Example 247, 2-Ethyl-5,7-dimethyl-3-((5′-(pyridin-2-yloxy)-2′-(1H-tetrazol-5-yl)-[1,1′-biphenyl]-4-yl)methyl)-3H-imidazo[4,5-b]pyridine]		> 100000 nM	74.4%	13.8 nM	22.7 nM	6.9 nM	30.8%		> 10000 nM		
CCc1nc2c(C)cc(C)nc2n1Cc1ccc(-c2cc(-c3cccc(C)c3)ccc2-c2nn[nH]n2)cc1 [Example 8]	6.9%	6 nM	93.0%	4.1 nM		6 nM	42.2%	14.0%	7.7 nM	80.5%	5.4 nM
CCc1nc2c(C)cc(C)nc2n1Cc1ccc(-c2cc(-c3cccc(OC)c3)ccc2-c2nn[nH]n2)cc1 [Example 20]	9.9%	12.8 nM	85.5%	4.3 nM		4.9 nM	38.7%	12.0%	10.8 nM	59.5%	12.2 nM
CCc1nc2c(C)cc(C)nc2n1Cc1ccc(-c2cc(-c3cccc(C(F)(F)F)n3)ccc2-c2nn[nH]n2)cc1 [Example 61]	9.8%	150 nM	81.4%	16.1 nM		31.5 nM	43.7%	6.4%	22.3 nM	38.2%	108 nM
CCc1nc2c(C)cc(C)nc2n1Cc1ccc(-c2cc(Oc3ccc(F)cc3F)ccc2-c2nnn[nH]2)cc1 [Example 208]	19.9%	106 nM	103.1%	6 nM	26.4 nM	20.8 nM	44.8%	17.4%	13.3 nM		
CCCCC1=NC2(CCCC2)C(=O)N1Cc1ccc(-c2cc(-c3ccc(C(=O)N(C)C)cc3)ccc2-c2nn[nH]n2)cc1 [Example 133]		> 100000 nM	69.0%	38.4 nM		5.7 nM	18.0%		> 10000 nM		> 10000 nM
